Assay results taken from patent publication US4640922A, “3N-substituted 3,4-dihydropyrimidines as agents for treating disorders of cardiovascular system” (Suntory Limited, priority 1984, dated 1987).
Like-named read-outs stand apart in the source and are kept apart here.

How the values were obtained:
[1] = system: systemic blood pressure; assay: Systemic blood pressure (average pressure) in anesthetized dogs; format: in vivo, dog; conditions: Canis lupus familiaris, iv, % of value before administration, average ± standard error, read-out: Average blood pressure, percentage compared with control
Description: (§1) The pharmacological effects of the compounds of the present invention with respect to the blood flow and blood vessel resistance of vertebral artery and systemic blood pressure (average pressure) in anesthetized dogs. […] The first and second ribs were cut open to expose the left vertebral artery. A probe was attached to the origin of the artery and the blood flow was measured with an electromagnetic rheometer (Model MF-27, product of Nihon Koden K.K.) At the same time, continuous measurement of the following parameters was made: systemic blood pressure (average pressure) at the right femoral artery, the ECG in the second induction period, the heart beat with a tachometer driven by the R wave, and the blood vessel resistance determined by loading a multiplication/division unit (EO-601 G, product of Nihon Koden K.K.) with the average values of blood pressure and blood flow in the vertebral artery. All of these parameters were recorded simultaneously on a polygraph (RM-600, product of Nihon Koden, K.K.) All of the test compounds were injected through a cannula inserted into the femoral […].

[2] = system: vertebral artery; assay: Blood flow and blood vessel resistance of vertebral artery in anesthetized dogs; format: in vivo, dog; conditions: Canis lupus familiaris, iv, % of value before administration, average ± standard error
Description: as §1

[3] = system: coronary artery (isolated heart); assay: Coronary vascular dilative effect, isolated perfused guinea pig heart, Langendorff's method (perfusion pressure); conditions: for Pharmacological data ED50: 0.1 ml injected into coronary artery, isolated guinea pig heart, 37° C., 6 ml/minute
Description: The coronary vascular dilative effect of 3N-substituted 3,4-dihydropryrimidine derivatives was tested.
Heartly guinea pigs (weight 400-500 g) were clubbed dead and their hearts were immediately isolated. The hearts were perfused with Krebs-Henseleit solution bubbled with a mixture of 95% O2 +5% CO2 and maintained at 37° C. at a certain rate of 6 ml/minute according to Langendorff's method [J. Pharmacol. Methods 2, 143 (1979)]. The perfusion pressure was determined by a pressure transducer. Samples were prepared by dissolving 1 mg of a test compound in 1 ml of a mixture of dimethylsulfoxide and physiological saline (1:9) and diluting with physiological saline the solution to the predetermined concentration. 0.1 ml of the diluted solution was administered into the coronary artery via a rubber tube connected to an aorta cannula to obtain ED50 (μg/heart) data as shown in Table 1. The numbers of the compounds in the Table correspond respectively to those of the working examples described above.

[4] = read-out: Vertebral artery blood flow, percentage compared with control
[5] = read-out: Vertebral artery vessel resistance, percentage compared with control

Compound	response vs control in vivo at 0.001 mg/kg [1]	response vs control in vivo at 0.003 mg/kg [1]	response vs control in vivo at 0.01 mg/kg [1]	response vs control in vivo at 0.03 mg/kg [1]	response vs control in vivo at 0.1 mg/kg [1]	response vs control in vivo at 0.001 mg/kg [2, 4]	response vs control in vivo at 0.001 mg/kg [2, 5]	response vs control in vivo at 0.003 mg/kg [2, 4]	response vs control in vivo at 0.003 mg/kg [2, 5]	response vs control in vivo at 0.01 mg/kg [2, 4]	response vs control in vivo at 0.01 mg/kg [2, 5]	response vs control in vivo at 0.03 mg/kg [2, 4]	response vs control in vivo at 0.03 mg/kg [2, 5]	response vs control in vivo at 0.1 mg/kg [2, 4]	response vs control in vivo at 0.1 mg/kg [2, 5]	Pharmacological data ED50 [3]	other results
COC(=O)C1=C(C)N=C(C)N(C(=O)OC)C1c1ccccc1[N+](=O)[O-] (stereo not drawn) [Compound 10]	92%	91%	86%	78%	63%	102%	99%	108%	94%	113%	86%	140%	67%	146%	58%	0.75 μg/heart	–
CCOC(=O)C1=C(C)N=C(C)N(C(=O)OCC)C1c1cccc([N+](=O)[O-])c1 (stereo not drawn) [Compound 12]	–	93 ± 0.3%	86 ± 1%	84 ± 3%	77 ± 2%	–	–	129 ± 11%	86 ± 2%	148 ± 3%	73 ± 3%	163 ± 7%	62 ± 4%	200 ± 6%	47 ± 5%	1.9 μg/heart	–
CCOC(=O)C1=C(Cl)N=C(C)N(C(=O)OCC)C1c1cccc([N+](=O)[O-])c1 (stereo not drawn) [Compound 13]	–	94%	92%	88%	78%	–	–	108%	89%	126%	81%	128%	73%	158%	54%	0.48 μg/heart	response vs control in vivo at 0.3 mg/kg ([1]; 0.3 mg/kg): 78%; response vs control in vivo at 1 mg/kg ([1]; 1.0 mg/kg): 77%; response vs control in vivo at 0.3 mg/kg [2, 4]: 179%; response vs control in vivo at 0.3 mg/kg [2, 5]: 46%; response vs control in vivo at 1 mg/kg [2, 4]: 216%; response vs control in vivo at 1 mg/kg [2, 5]: 41%
COC(=O)C1=C(C)N=C(C)N(C(=O)OC)C1c1cccc([N+](=O)[O-])c1 (stereo not drawn) [Compound 17]	95%	90%	89%	86%	74%	100%	97%	106%	95%	108%	89%	129%	77%	148%	67%	2.5 μg/heart	–
CCOC(=O)C1=C(C)N=C(C)N(C(=O)OCC)C1c1ccccc1Cl (stereo not drawn) [Compound 22]	94%	89%	82%	85%	79%	105%	96%	119%	80%	136%	65%	188%	49%	229%	39%	0.086 μg/heart	coronary vascular dilative effects (in words) ([3]; Langendorff's method, guinea pig heart): extremely strong coronary vascular dilative effects
